Results: PMC8448819, “The Arabidopsis MIK2 receptor elicits immunity by sensing a conserved signature from phytocytokines and microbes” (Nature Communications, 2021)

Columns and labels:
[1] = system: bak1-4 and bak1-5/serk4 mutant seedlings; test: Root growth assay, coreceptor mutants; format: in vivo, Arabidopsis thaliana
Text: The Arabidopsis thaliana accession Columbia-0 (Col-0) was used as wild type (WT). T-DNA insertion mutants of mik2-1 (SALK_061769), mik2-2 (SALK_046987), mik2-like (SALK_112341), and rlk7-3 (SALK_120595) were obtained from the Nottingham Arabidopsis Stock Centre (NASC). The fls2 (SALK_141277), bak1-4, bik1-1/pbl1-1, bak1-5/serk4-1, rbohd mutants, and the transgenic line expressing p35S::GFP have been reported previously[19],[62],[63]. The hae/hsl2 mutant was kindly provided by Dr. Reidunn B. Aalen (University of Oslo, Norway), the pepr1-2/pepr2-2 (pepr1,2) mutant by Dr. Zhi Qi (Inner Mongolia University, China), the scoop12 mutant by Dr. Sébastien Aubourg (INRA, France), a transgenic line expressing p35S::Aequorin by Dr. Marc Knight (Durham University, UK), transgenic line expressing pMYB51::GUS by Dr. Frederick M. Ausubel (Harvard Medical School, USA). […]
(§1) Cold stratified seeds were surface-sterilized with 70% (v/v) ethanol for 5 min and were sown on ½MS plates with or without peptides at indicated concentrations. Ten-day-old seedlings grown on plates vertically in a growth chamber were photographed, and the root lengths of seedlings were measured using Image J (http://rsb.info.nih.gov/ij/).

[2] = system: WRKY30, WRKY33 and CYP81F2 expression, WT seedlings; test: RT-qPCR of defense genes, WT; format: in vivo, Arabidopsis thaliana
mik2-1 seedling roots = test: Microscopy of root meristems, mik2-1; format: in vivo, Arabidopsis thaliana; conditions: mik2-1, 1 µM, 48 h
Arabidopsis = conditions: cited from earlier work
Text: Some plant LRR-RKs are pattern recognition receptors (PRRs) that recognize pathogen- or microbe-associated molecular patterns (PAMPs or MAMPs) or damage-associated molecular patterns (DAMPs) and initiate pattern-triggered immunity (PTI)[10]-[13]. […] Despite the differ ... || Plant plasma membrane-resident RKs perceive diverse exogenous and endogenous signals via the extracellular domain and activate intracellular responses through the cytoplasmic kinase domain[1]-[3]. The chimeric receptors with the swapped extracellular and intracellular domains between different RKs have been used to study the specificity of signal perception and signaling activation[48]-[52]. The extracellular domains of RKs determine the ligand-binding specificity[50],[51],[53]. The intracellular kinase domains of different RKs also trigger specific responses. […] It remains unknown why plants have evolved so many SCOOPs and the functional specificity for different SCOOPs. […] SCOOP12, the most studied SCOOP, is highly expressed in roots (Fig. 2b), and was indicated to regulate ro ...

[3] = system: RLK7^ECD-MIK2^TK/rlk7 and RLK7/rlk7 transgenic seedlings; test: Root growth assay, rlk7, RLK7/rlk7 and RLK7^ECD-MIK2^TK/rlk7 seedlings; format: in vivo, Arabidopsis thaliana
Text: The BAK1 (AT4G33430), SERK4 (AT2G13790), BIK1 (AT2G39660), and MIK2 (AT4G08850) coding sequences (CDSs) were amplified by PCR from Col-0 cDNA using the primers containing BamHI at the 5′ end and StuI at the 3′ end. The PCR products were digested by BamHI and StuI, followed by ligation into the pHBT-FLAG or pHBT-HA vector to generate pHBT-35S::BAK1-FLAG, pHBT-35S::SERK4-FLAG, pHBT-35S::BIK1-HA, pHBT-35S::MIK2-HA, and pHBT-35S::MIK2-GFP constructs[24],[41],[62]. MIK2^ECD (residues 1–707) and BAK1^ECD (residues 1–220) were amplified by PCR from Col-0 cDNA and cloned into pFastBac-1 vector with a C-terminal 6× HIS tag[25],[62]. The fusion protein vectors carrying MIK2^ECD or BAK1^ECD were used for insect cell expression. To obtain the binary vector pCAMBIA1300-35S::RLK7, a 2907-bp RLK7 CDS was PCR-amplified from WT cDNA using gene-specific primers with KpnI and SalI at the 5′ and 3′ ends, respectively, followed by KpnI and SalI digestion and ligation into the pCAMBIA1300 vector. To generate the binary vector pCAMBIA1300 carrying the RLK7^ECD-MIK2^TK chimeric receptor gene, an 1824-bp fragment encoding RLK7^ECD was PCR-amplified from WT cDNA using a gene-specific forward primer with KpnI at the 5′ end and a gene-specific reverse primer with 8-bp overlapping sequence from the 5′ end of MIK2^TK, and a 1011-bp fragment encoding MIK2^TK using a gene-specific forward primer with 8-bp overlapping sequence from the 3′ end of RLK7 ^ECD and a gene-specific reverse primer with SalI at the 5′ end. RLK7^ECD was fused with MIK2^TK and inserted into the pUC19 vector using in-fusion recombinant enzymes (Clontech). […]
as §1

Substance | root growth inhibition in bak1-4 ([1]; bak1-4, 1 µM) | root growth inhibition in bak1-5/serk4 ([1]; bak1-5/serk4, 1 µM) | WRKY30, WRKY33 and CYP81F2 expression ([2]; 1 µM, 1 h, RT-qPCR) | CYP81F2 expression (Fig. 3i) ([2]; repeat 1) | CYP81F2 expression (Fig. 3i) ([2]; repeat 2) | CYP81F2 expression (Fig. 3i) ([2]; repeat 3) | CYP81F2 expression (Fig. 3i) ([2]; repeat 4) | root meristem distortion in mik2-1 (mik2-1 seedling roots) | BIK1 dependence of responses (Arabidopsis) | root growth retardation ([3]; RLK7/rlk7 and RLK7^ECD-MIK2^TK/rlk7, 1 µM PIP1) | brown roots and darkened root-hypocotyl junctions ([3]; RLK7^ECD-MIK2^TK/rlk7) | root growth retardation vs RLK7/rlk7 ([3]; RLK7^ECD-MIK2^TK/rlk7, 1 µM PIP1)
PNGDIFTGPSGSGHGGGR [SCOOP10B, synthesized SCOOP peptide corresponding to the SxS motif] | partially compromised in bak1-4 | compromised in bak1-4 and bak1-5/serk4 | upregulation | 82.36 | 146.22 | 132.08 | 187.19 | not observed in mik2-1 | – | – | – | –
RLASGP(OH)SPRGRGH [PIP1, secreted peptide, ligand of RLK7] | – | – | – | – | – | – | – | – | BIK1-independent | restored the sensitivity to PIP1 treatment exhibiting root growth retardation | brown roots and darkened root-hypocotyl junctions | more substantial root growth retardation
